Test results reported in patent publication US8058242B2, “Chimeric proteins with natriuretic activity” (The University of Queensland, priority 2004, dated 2011).
Positions of bridges follow the written chain, without caps; N, C: chain ends. Non-standard residues stand in square brackets, D forms with d. Residues, ends and D or L forms follow the SMILES beside them. No end group written: not given here. Cha = N[C@@H](CC1CCCCC1)C(=O)O; Sec = N[C@@H](C[SeH])C(=O)O

Key:
[1] = molecular target: T1, Natriuretic Peptide Receptor-A (NPR-A) signaling in MDCK cells (Canis lupus familiaris, UniProt A0A8I3MHU3); assay type: cell-based, canine; conditions: stimulation of cGMP accumulation in MDCK cells; for EC50: read-out: EC50 (M) ± Standard Error
T1 sequence (A0A8I3MHU3 32-1060): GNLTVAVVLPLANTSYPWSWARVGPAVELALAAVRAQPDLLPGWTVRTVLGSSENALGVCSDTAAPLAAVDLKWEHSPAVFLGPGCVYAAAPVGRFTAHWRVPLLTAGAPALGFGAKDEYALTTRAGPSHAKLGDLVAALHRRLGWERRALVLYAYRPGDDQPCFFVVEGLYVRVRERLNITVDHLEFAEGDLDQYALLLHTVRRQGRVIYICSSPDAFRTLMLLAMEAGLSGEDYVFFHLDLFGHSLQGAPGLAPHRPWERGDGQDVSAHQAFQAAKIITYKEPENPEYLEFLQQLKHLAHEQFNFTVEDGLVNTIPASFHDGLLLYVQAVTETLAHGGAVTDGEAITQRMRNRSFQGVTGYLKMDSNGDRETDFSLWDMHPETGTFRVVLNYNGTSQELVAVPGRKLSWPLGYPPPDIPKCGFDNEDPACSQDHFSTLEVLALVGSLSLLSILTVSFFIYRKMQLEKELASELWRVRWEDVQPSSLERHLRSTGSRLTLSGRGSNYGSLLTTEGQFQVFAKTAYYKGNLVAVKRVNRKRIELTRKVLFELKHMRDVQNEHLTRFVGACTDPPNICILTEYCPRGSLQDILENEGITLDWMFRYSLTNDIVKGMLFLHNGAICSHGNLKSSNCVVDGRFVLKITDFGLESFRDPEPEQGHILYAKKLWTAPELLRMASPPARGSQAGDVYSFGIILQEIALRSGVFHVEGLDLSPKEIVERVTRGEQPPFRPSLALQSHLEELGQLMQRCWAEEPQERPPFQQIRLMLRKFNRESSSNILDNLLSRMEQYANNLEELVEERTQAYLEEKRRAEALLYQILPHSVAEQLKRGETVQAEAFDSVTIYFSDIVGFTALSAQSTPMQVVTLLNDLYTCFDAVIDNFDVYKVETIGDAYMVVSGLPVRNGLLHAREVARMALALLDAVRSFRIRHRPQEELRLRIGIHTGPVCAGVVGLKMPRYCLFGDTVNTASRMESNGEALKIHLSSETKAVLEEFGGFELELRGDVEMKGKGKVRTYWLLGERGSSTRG

conscious rabbits = assay: Blood pressure and heart rate in conscious rabbits, intravenous infusion dose-response (Example 8); conditions: for recovery of MAP, in words: 2 hours after infusion
[2] = tested on: denuded aortic rings, GC A receptor; assay: Relaxation of noradrenaline constricted endothelium-denuded aortic rings (Example 11); set-up: species or system rat; conditions: GC-A mediated
Method: Male Sprague Dawley rats were killed and the descending thoracic aorta rapidly removed and flushed with physiological solution. After being cleared of adhering fat and connective tissue, 5 mm rings were mounted under 10 g resting tension, between two stainless steel hooks, in organ baths (37° C.) containing carbogenated (95% O2 and 5% CO2) physiological salt solution of the following composition (mM): NaCl, 118.4; NaHCO3, 25; glucose, 11; KCl, 4.7; MgSO4, 1.2; KH2PO4, 1.2 and CaCl2, 2.5. The lower hook was attached to a tissue holder and the upper hook to a force displacement transducer (Grass FTO3). Where indicated endothelial cells were removed by gentle rubbing of the intimal surface with a wire. To confirm the presence or absence of endothelial cells, tissues were precontracted with a sub-maximal concentration of phenylephrine (0.3 μM) and the response to acetylcholine (ACh, 10 μM) observed. Ach-induced relaxation greater than 80% of maximum indicated the presence of endothelium; whereas Ach-induced relaxation less than 10% indicated the absence of endothelium. Ring preparations under resting tension were conditioned by two contraction/relaxation cycles with 40 mM KCl, contracted by a third application of 40 mM KCl and then relaxed with different doses of the venom peptides. Responses were expressed as a percentage relaxation of the precontraction by KCl.
In addition to the peptides tested in example 3, a series of 13 analogs corresponding to the 2a, 2b and 2c grouping of peptides were examined for their ability to dilate noradrenaline constricted aortic rings. The degree of constriction was expressed as a percentage of the KCl induced constriction. The aortic rings were prepared in a manner similar to the method described in example 3. […]. In each case there were at least 3 separate aortic rings tested per peptide and all were denuded of endothelium to ensure responses were confined to the GC A receptor.

[3] = after a 2 hour recovery period, Table 10B
[4] = final dose, Table 10B, groups 2B and 2C
[5] = after 1 hour recovery period, Table 10A

In the case of `CC[C@H](C)[C@@H]1NC(=O)[C@H](CCCNC(=N)N)NC(=O)[C@H](CC(=O)O)NC(=O)[C@H](CC(C)C)NC(=O)[C@@H]2CCCN2C(=O)[C@H](Cc2ccccc2)NC(=O)CNC(=O)[C@H](Cc2ccccc2)NC(=O)[C@@H](NC(=O)CNC(=O)[C@H](CO)NC(=O)CNC(=O)[C@H](CCC(N)=O)NC(=O)[C@@H](NC(=O)[C@H](CCSC)NC(=O)[C@H](CCCCN)NC(=O)[C@@H]2CCCN2C(=O)[C@@H](N)CO)C(C)C)CSSC[C@@H](C(=O)N[C@@H](CC(N)=O)C(=O)N[C@@H](CCCNC(=N)N)C(=O)N[C@H](C(=O)N[C@@H](CCSC)C(=O)N[C@@H](CCC(N)=O)C(=O)N[C@@H](CC(N)=O)C(=O)N2CCC[C@H]2C(=O)N2CCC[C@H]2C(=O)N[C@@H](CCCCN)C(=O)N[C@@H](CCCCN)C(=O)N[C@@H](Cc2ccccc2)C(=O)N[C@@H](CO)C(=O)NCC(=O)N[C@@H](CCC(=O)O)C(=O)O)[C@@H](C)CC)NC(=O)CNC(=O)[C@H](CC(C)C)NC(=O)CNC(=O)[C@H](CO)NC(=O)[C@H](C(C)C)NC(=O)[C@H](CO)NC(=O)CNC1=O` [TNPc BTT] (H-SPKMVQGSGCFGFPLDRIGSVSGLGCNRIMQNPPKKFSGE-OH; disulfide 10-26; N-terminus assumed), the “−Log10 EC50 (pEC50) ± Standard Error” value [1] is reported as 8.177 ± 0.1049, the EC50 [1] is reported as 7.06e-09 M and the “recovery of MAP, in words” value (conscious rabbits) is reported as “did not recover after 2 hours”. The “MAP at final dose” value (conscious rabbits; Table 10B) was 63.4 mm Hg, the “Recovery (MAP)” value (conscious rabbits; [3]) was 65.4 mm Hg and the “Recovery Delta SED (MAP)” value (conscious rabbits; [3]) was 2.1 ± 1.5 mm Hg. The “Treatment Effect, change of mean blood pressure during the infusion” value (shortened to “Treatment Effect, change”) (conscious rabbits; [4]) was −10.8 mm Hg and the “Mean relaxation SEM of denuded aortic rings expressed as % of KCl response” value (“Mean relaxation SEM … as % of KCl response” below) [2] was 62.1 ± 6.6%.

In the case of `CC[C@H](C)[C@H](NC(=O)[C@H](CCCCN)NC(=O)[C@H](CO)NC(=O)[C@H](CC(=O)O)NC(=O)[C@@H](N)CO)C(=O)NCC(=O)N[C@@H](CC(N)=O)C(=O)NCC(=O)N[C@H]1CSSC[C@@H](C(=O)N[C@@H](CC(N)=O)C(=O)N[C@@H](CCCNC(=N)N)C(=O)N[C@H](C(=O)N[C@@H](CCSC)C(=O)N[C@@H](CCC(N)=O)C(=O)N[C@@H](CC(N)=O)C(=O)N2CCC[C@H]2C(=O)N2CCC[C@H]2C(=O)N[C@@H](CCCCN)C(=O)N[C@@H](CCCCN)C(=O)N[C@@H](Cc2ccccc2)C(=O)N[C@@H](CO)C(=O)NCC(=O)N[C@@H](CCC(=O)O)C(=O)O)[C@@H](C)CC)NC(=O)CNC(=O)[C@H](CC(C)C)NC(=O)CNC(=O)[C@H](CO)NC(=O)[C@H](C(C)C)NC(=O)[C@H](CO)NC(=O)CNC(=O)[C@H]([C@@H](C)CC)NC(=O)[C@H](CCCNC(=N)N)NC(=O)[C@H](CC(=O)O)NC(=O)[C@H](CC(C)C)NC(=O)[C@@H]2CCCN2C(=O)[C@H](Cc2ccccc2)NC(=O)CNC(=O)[C@H](CC2CCCCC2)NC1=O` [TNPc Cha-10] (H-SDSKIGNGC[Cha]GFPLDRIGSVSGLGCNRIMQNPPKKFSGE-OH; disulfide 9-25; N-terminus assumed), the “−Log10 EC50 (pEC50) ± Standard Error” value [1] is reported as 7.84, the EC50 [1] is reported as 1.44e-08 M and the “recovery of MAP, in words” value (conscious rabbits) is reported as “partially recovered”. For the same compound, the “MAP at final dose” value (conscious rabbits; Table 10B) was 67.3 mm Hg, the “Recovery (MAP)” value (conscious rabbits; [3]) was 76.5 mm Hg and the “Recovery Delta SED (MAP)” value (conscious rabbits; [3]) was 9.1 ± 3.9 mm Hg. For the same compound, the “Treatment Effect, change” value (conscious rabbits; [4]) was −10.8 mm Hg and the “Mean relaxation SEM … as % of KCl response” value [2] was 64.2 ± 4.2%.

In the case of `CC[C@H](C)[C@@H]1NC(=O)[C@H](CCCNC(=N)N)NC(=O)[C@H](CC(=O)O)NC(=O)[C@H](CC(C)C)NC(=O)[C@@H]2CCCN2C(=O)[C@H](Cc2ccccc2)NC(=O)CNC(=O)[C@H](Cc2ccccc2)NC(=O)[C@@H](NC(=O)[C@@H]2CCCN2C(=O)[C@H](CC(=O)O)NC(=O)[C@H](Cc2ccc(O)cc2)NC(=O)[C@H](CCCCN)NC(=O)[C@@H](NC(=O)[C@@H](N)CCC(=O)O)C(C)C)CSSC[C@@H](C(=O)N[C@@H](CC(N)=O)C(=O)N[C@@H](CCCNC(=N)N)C(=O)N[C@H](C(=O)N[C@@H](CCSC)C(=O)N[C@@H](CCC(N)=O)C(=O)N[C@@H](CC(N)=O)C(=O)N2CCC[C@H]2C(=O)N2CCC[C@H]2C(=O)N[C@@H](CCCCN)C(=O)N[C@@H](CCCCN)C(=O)N[C@@H](Cc2ccccc2)C(=O)N[C@@H](CO)C(=O)NCC(=O)N[C@@H](CCC(=O)O)C(=O)O)[C@@H](C)CC)NC(=O)CNC(=O)[C@H](CC(C)C)NC(=O)CNC(=O)[C@H](CO)NC(=O)[C@H](C(C)C)NC(=O)[C@H](CO)NC(=O)CNC1=O` [TNPc DTT] (H-EVKYDPCFGFPLDRIGSVSGLGCNRIMQNPPKKFSGE-OH; disulfide 7-23; N-terminus assumed), the “−Log10 EC50 (pEC50) ± Standard Error” value [1] is reported as 7.723 ± 0.1425, the EC50 [1] is reported as 2.12e-08 M and the “recovery of MAP, in words” value (conscious rabbits) is reported as “partially recovered”. For the same compound, the “MAP at final dose” value (conscious rabbits; Table 10B) was 58.6 mm Hg, the “Recovery (MAP)” value (conscious rabbits; [3]) was 70.3 mm Hg and the “Recovery Delta SED (MAP)” value (conscious rabbits; [3]) was 11.7 ± 5.2 mm Hg. For the same compound, the “Treatment Effect, change” value (conscious rabbits; [4]) was −12.4 mm Hg and the “Mean relaxation SEM … as % of KCl response” value [2] was 58.9 ± 6.7%.

“SDSKISAGCFGFPLDRIGSVSGLGCNRIMQNPPKKFSGE (A portion of a natriuretic peptide) [TNPc A7S6]” was tested, and the “recovery of MAP, in words” value (conscious rabbits) was “partially recovered”, the “MAP at final dose” value (conscious rabbits; Table 10B) was 56.3 mm Hg and the “Recovery (MAP)” value (conscious rabbits; [3]) was 66.8 mm Hg. For the same compound, the “Recovery Delta SED (MAP)” value (conscious rabbits; [3]) was 10.5 ± 3.1 mm Hg, the “Treatment Effect, change” value (conscious rabbits; [4]) was −12.9 mm Hg and the “Mean relaxation SEM … as % of KCl response” value [2] was 43.1 ± 8.6%.

For “SDSKIGNGUFGFPLDRIGSVSGLGUNRIMQNPPKKFSGE (SDSKIGNG[Sec]FGFPLDRIGSVSGLG[Sec]NRIMQNPPKKFSGE; ends and bridges not checked) [TNPc diseleno]”, the “recovery of MAP, in words” value (conscious rabbits) was “did not recover after 2 hours”, the “MAP at final dose” value (conscious rabbits; Table 10B) was 61.0 mm Hg and the “Recovery (MAP)” value (conscious rabbits; [3]) was 65.8 mm Hg. For the same compound, the “Recovery Delta SED (MAP)” value (conscious rabbits; [3]) was 4.8 ± 0.3 mm Hg, the “Treatment Effect, change” value (conscious rabbits; [4]) was −12.6 mm Hg and the “Mean relaxation SEM … as % of KCl response” value [2] was 60.5 ± 9.6%.

“SDSKIGNGCFGFPLDRIGSVSGLGCNRPMQNPPKKFSGE (A portion of a natriuretic peptide) [TNPc I28P]” was tested, and the “Recovery (MAP)” value (conscious rabbits; [5]) was 66.6 mm Hg, the “Recovery Delta SED (MAP)” value (conscious rabbits; [5]) was 1.2 ± 2.4 mm Hg and the “reduction of MAP compared to vehicle, in words” value (conscious rabbits; highest dose) was “did significantly reduce MAP”. For the same compound, the “MAP at final dose” value (conscious rabbits; highest dose, Table 10A) was 65.4 mm Hg, the “Treatment Effect, change” value (conscious rabbits; highest dose, Table 10A, groups 1, 2A and 3) was −9.1 mm Hg and the “recovery of MAP from the hypotension, in words” value (conscious rabbits; one hour after the end of infusion) was “did recover from the hypotension”. For the same compound, the “Mean relaxation SEM … as % of KCl response” value [2] was 52.6 ± 5.0%.
